# Legend:
# PC-3 cells [1] = assay: FACScan flow cytometric analysis of cell cycle progression; type: cell-based; conditions: 1 µM, 3 µM, and 10 µM, 0 hr to 48 hrs
# Method: PC-3 cells were treated with Compound 55 (at different concentrations: 1 µM, 3 µM, and 10 µM) for 0 hr, 6 hrs, 12 hrs, 18 hrs, 24 hrs, 36 hrs, and 48 hrs. After treatment, cells were washed twice with ice-cold PBS, collected by centrifugation and fixed in 70% (v/v) ethanol at 4°C for 30 min. Then, cells were treated with 0.2 ml of a buffer (containing 0.2 M Na2HPO4 and 0.1 M citric acid buffer, pH 7.8) for 30 min, centrifuged, and then incubated in 1 mL propidium iodide (PI) staining buffer (0.1 % Triton X-100, 100 µg/mL RNase A, 80 µg/mL propidium iodide in PBS) at 37°C for 30 min. Cells were detected using a cytofluorometer, and analyzed by FACScan and CellQuest program (Becton Dickinson).
# Ras, Raf-1, and MEK = assay: Western blotting of Ras, Raf-1, MEK; type: cell-based; conditions: PC-3 cells; 10 µM; 30-120 min for Ras, 6-24 hrs for Raf-1, MEK
# Method: (§1) PC-3 cells were incubated with a vehicle (0.1% DMSO) as control or Coumpound 55 (10 µM) for 30 min, 45 min, 60 min, and 120 min for testing Ras; or for 6 hrs, 12 hrs, 18 hrs, and 24 hrs for testing Raf-1, Phospho-MEK, MEK, and GAPDH. After the treatment, cells were washed twice with ice-cold PBS and then lysed with 100 µL lysis buffer (20 mM Tris, pH 7.5, 1 mM MgCl2, 125 mM NaCl, 1% Triton X-100, 1 mM phenylmethylsulphonylfluoride, 10 µg/mL leupeptin, 10 µg/mL aprotinin, 25 mM β-glycerophosphate, 50 mM NaF, and 100 µM sodium orthovanadate). Then, the expressions of the above proteins were detected by Western blotting.
# [2] = tested on: Cyclin E, Cyclin A, Cyclin B1, Cdk1, Cdk2, p27, MPM2; assay: Western blot analysis of cell-cycle regulators; type: cell-based; conditions: PC-3 cells; 10 µM
# Method: as §1
# The cell-cycle regulators were also examined by Western blot analysis. Proteins in the lysis (40 µg) were separated by electrophoresis in a 10 or 15% polyacrylamide gel, transferred to a nitrocellulose membrane and immuno-reacted with respective antibodies against Cyclin E, Cyclin A, Cyclin B1, Cdk1, Cdk2, p27, MPM2, and GAPDH.
# Tubulin proteins = assay: In vitro tubulin turbidity assay; type: biochemical; conditions: absorbance at 340 nm, 37°C, 60 min
# Method: Effects of the benzimidazole compounds on tubulin polymerization were detected using CytoDYNAMIX Screen 03 kit (Cytoskeleton, Inc., Denver, CO).
# Tubulin proteins (> 99% purity) were suspended in G-PEM buffer containing 80 mM PIPES, 2 mM MgCl2, 0.5 mM […], and 1.0 mM GTP (pH 6.9) and 5% glycerol with or without a test compound. Then, the mixture was transferred to a 96-well plate and the absorbance was measured at 340 nm (37°C) for 60 min (SpectraMAX Plus, Molecular Devices Inc., Sunnyvale, CA).
# Level oftubulin polymerization was determined by examining turbidity of the tubulin suspension. Absorbance of the suspension at 340 nm was plotted as a function of time. Accordingly, the velocity and magnitude of tubulin polymerization were determined.
# PC-3 cells [3] = assay: In situ tubulin assay (immunofluorescence microscopy); type: cell-based; conditions: 18 to 24 h
# Method: The organization and formation of microtubule were detected by immunofluorescence microscopic examination in PC-3 cells.
# PC-3 cells were seeded in 8-well chamber slides and incubated with a vehicle (0.1% DMSO, control), Compound 55 (10 µM), taxol (0.1 µM), or vincristine (0.1 µM) for 18 to 24 h. Then, the cells were fixed with 100 % methanol at -20°C for 5 min and incubated in 1 % bovine serum albumin (BSA) containing 0.1 % Triton X-100 at 37°C for 30 min. Cells were then washed twice with PBS for 5min and stained with primary antibody specific to β-tubulin at 37°C for 1 h. Afterwards, FITC-labeled secondary antibodies were used (staining performed at 37°C for 40 min, green fluorescence) and the protein was detected using a confocal laser microscopic system (Leica TCS SP2). The nuclei were visible by DAPI staining (1 mg/mL DAPI, blue fluorescence).
# [4] = tested on: Bcl-2 family member proteins, caspases; assay: Western blot analysis of Bcl-2 family member proteins and caspases (apoptosis); type: cell-based; conditions: PC-3 cells; 10 µM; 0 hr to 36 hrs
# Method: Effect of benzimidazole compounds on inducing apoptosis was evaluated by testing their effect on the expression/activation of Bcl-2 family member proteins, caspases, and c-Jun N-terminal kinase (JNK). Bcl-2 family of proteins is the most important regulators of mitochondria-involved apoptotic cell death. The pro-apoptotic members, Bax, Bak and Bad, are required for the disruption of mitochondria; whereas the anti-apoptotic Bcl-2, Bcl-xL and Mcl-1 can prevent apoptosis by antagonizing the pro-apoptotic members.
# PC-3 cells were incubated with a vehicle (0.1% DMSO) or Compound 55 (10 µM) for 0 hr, 6 hrs, 12 hrs, 18 hrs, 24 hrs, and 36 hrs. Then, the cells were harvested and lysed for the detection of protein expression with specific antibodies by western blot analysis. For Western blotting, the proteins (40 µg) in the lysis (including Phospho-Bcl-2, Bcl-2, Phospho-Bcl-xL, Bcl-xL, Mcl-1, Bax, Bak, Bad, GAPDH, cleaved Bad, Caspase-9, cleaved Caspase-9, Caspase-3, cleaved Caspase-3, poly-(ADP-ribose) polymerase (PARP), cleaved PARP, and GAPDH) were separated by electrophoresis in a 10 to 15% polyacrylamide gel, transferred to a nitrocellulose membrane and immuno-reacted with specific antibodies.
Compound,cell population at G2/M phase (PC-3 cells [1]),"hypodiploid (sub-G1, apoptosis) population of the cell cycle (PC-3 cells [1])","expression of Ras, Raf-1, and MEK (Ras, Raf-1, and MEK)",expression of cyclin B1 [2],expression of cyclin E and cyclin A [2],tubulin polymerization (Tubulin proteins),"spindles and nuclei, in situ labeling of tubulin and chromosomes (PC-3 cells [3]; 10 µM)",Mcl-1 expression [4],"cleavage of caspase-9, caspase-3 and PARP [4]",phosphorylation and degradation of Bcl-2 and Bcl-xL [4],"spindles and nuclei, in situ labeling of tubulin and chromosomes (PC-3 cells [3]; 0.1 µM)"
"COc1cc(Cn2c(-c3ccccc3)nc3cc(N4CCCC4)ccc32)cc(OC)c1OC [Compound 55, 2-phenyl-5-(pyrrolidin-1-yl)-1-(3,4,5-trimethoxybenzyl)-1H benzo[d]imidazole]",increase of cell population at G2/M phase,"subsequent increase of hypodiploid (sub-G1, apoptosis) population","upregulated Ras, Raf-1, and MEK",upregulated cyclin B1,downregulated cyclin E and cyclin A,inhibited tubulin polymerization in a dose-dependent manner,mono-polar,decrease of Mcl-1 expression,cleaved to produce catalytically active fragments,induced the phosphorylation and degradation of Bcl-2 and Bcl-xL,–
CC(=O)O[C@H]1C(=O)[C@@]2(C)[C@H]([C@H](OC(=O)c3ccccc3)[C@]3(O)C[C@H](OC(=O)[C@H](O)[C@@H](NC(=O)c4ccccc4)c4ccccc4)C(C)=C1C3(C)C)[C@]1(OC(C)=O)CO[C@@H]1C[C@@H]2O [taxol],–,–,–,–,–,–,–,–,–,–,multi-polar spindles and multiple nuclei were formed
CC[C@]1(O)C[C@H]2CN(CCc3c([nH]c4ccccc34)[C@@](C(=O)OC)(c3cc4c(cc3OC)N(C=O)[C@H]3[C@@](O)(C(=O)OC)[C@H](OC(C)=O)[C@]5(CC)C=CCN6CC[C@]43[C@@H]65)C2)C1 [vincristine],–,–,–,–,–,–,–,–,–,–,multi-polar spindles and chromosome condensation were observed

# From EP2397471A1, “Benzimidazole compounds and their use” (China Medical University, priority 2010, dated 2011)
